Test results from ChEMBL document CHEMBL4665628, “Pyranocarbazole derivatives as potent anti-cancer agents triggering tubulin polymerization stabilization induced activation of caspase-dependent apoptosis and downregulation of Akt/mTOR in breast cancer cells” (Eur J Med Chem, 2019).
Where a name gives a salt, the structure may show the parent alone. Active and inactive are the calls of the source. The rule behind the calls is not given here.

Experiments:
[1] = system: HepG2; assay: cells; format: functional, cell-based; conditions: Homo sapiens, HepG2, 24 h
Description: Anticancer activity against human HepG2 cells assessed as cell growth inhibition measured after 24 hrs by MTT assay

[2] = system: MDA-MB-231; assay: cells; format: functional, cell-based; conditions: Homo sapiens, MDA-MB-231, 24 h
Description: Anticancer activity against human MDA-MB-231 cells assessed as cell growth inhibition measured after 24 hrs by MTT assay

[3] = system: MCF7; assay: cells; format: functional, cell-based; conditions: Homo sapiens, MCF7, 24 h
Description: Anticancer activity against human MCF7 cells assessed as cell growth inhibition measured after 24 hrs by MTT assay

[4] = system: DU-145; assay: cells; format: functional, cell-based; conditions: Homo sapiens, DU-145, 24 h
Description: Anticancer activity against human DU-145 cells assessed as cell growth inhibition measured after 24 hrs by MTT assay

[5] = system: A549; assay: cells; format: functional, cell-based; conditions: Homo sapiens, A549, 24 h
Description: Anticancer activity against human A549 cells assessed as cell growth inhibition measured after 24 hrs by MTT assay

[6] = system: PC-3; assay: cells; format: functional, cell-based; conditions: Homo sapiens, PC-3, 24 h
Description: Anticancer activity against human PC-3 cells assessed as cell growth inhibition measured after 24 hrs by MTT assay

[7] = system: DLD-1; assay: cells; format: functional, cell-based; conditions: Homo sapiens, DLD-1, 24 h
Description: Anticancer activity against human DLD-1 cells assessed as cell growth inhibition measured after 24 hrs by MTT assay

[8] = system: HEK293; assay: cells; format: ADME, cell-based; conditions: Homo sapiens, HEK293, 24 h
Description: Cytotoxicity against HEK293 cells assessed as cell growth inhibition measured after 24 hrs by MTT assay

[9] = biological target: Tubulin (Homo sapiens) (UniProt P68371+Q9H4B7+P0DPH7+P68366+Q13509+Q71U36+P04350+Q3ZCM7+P07437+P68363+Q9BQE3+Q6PEY2+Q13885+Q9BVA1+Q9BUF5); assay: Inhibition of tubulin (unknown origin) polymerization assessed as stabilization of microtubules at10 uM measured up to 60 mins in presence of GTP; format: protein-complex assay; conditions: dose 10.0 µM, time min <=60
[10] = system: DNA; assay: Binding affinity to DNA (unknown origin) at 0.1 to 0.2 mM by agarose gel electrophoresis; format: nucleic-acid assay; conditions: dose mM 0.1-0.2
[11] = system: MDA-MB-231; assay: Induction of mitochondrial membrane depolarization in human MDA-MB-231 cells at 10 uM measured after 24 hrs by JC-1 staining based flow cytometry analysis (reference value: 0.89 to 3.24 %); format: functional

IC50 [1] [µM]	IC50 [2] [µM]	IC50 [3] [µM]	IC50 [4] [µM]	IC50 [5] [µM]	IC50 [6] [µM]	IC50 [7] [µM]	Activity [9]	Activity [10]	Compound	IC50 [8] [µM]	Activity [11] [%]
16	> 100	59.1	> 100	56.5	15.2	> 100			COc1ccc2c(c1)c1cc(C)c3c(c1n2Cc1ccccc1Br)C=CC(C)(C)O3	> 100	
33.3	2.6	3.9	> 100	> 100	56.4	54.7			COc1ccc2[nH]c3c4c(c(C=O)cc3c2c1)OC(C)(C)C=C4 [CLAULANSINE F]	2.5	
47.1	28.5	71.9	> 100	80.1	29.2	42.1			COc1cc2c3cc(C)c4c(c3n(Cc3ccccc3)c2cc1OC)C=CC(C)(C)O4	> 100	
36.8	23.2	> 100	> 100	88	13.3	34.1			COc1ccc2c(c1)c1cc(C)c3c(c1n2Cc1ccc(F)cc1F)C=CC(C)(C)O3	> 100	
							Active		CC(=O)O[C@H]1C(=O)[C@@]2(C)[C@H]([C@H](OC(=O)c3ccccc3)[C@]3(O)C[C@H](OC(=O)[C@H](O)[C@@H](NC(=O)c4ccccc4)c4ccccc4)C(C)=C1C3(C)C)[C@]1(OC(C)=O)CO[C@@H]1C[C@@H]2O		
42.9	36.5	> 100	> 100	> 100	> 100	75.3			C=CCn1c2cc(OC)c(OC)cc2c2cc(C)c3c(c21)C=CC(C)(C)O3	> 100	
8						10.2		Active	COc1cccc2c1C(=O)c1c(O)c3c(c(O)c1C2=O)C[C@@](O)(C(=O)CO)C[C@@H]3O[C@H]1C[C@H](N)[C@H](O)[C@H](C)O1 [DOXORUBICIN]		
9.1	> 100	51.8	> 100	53.3	33.1	54.2			COc1ccc2c(c1)c1cc(C)c3c(c1n2Cc1cc(F)ccc1F)C=CC(C)(C)O3	> 100	
33.8	19.7	29.4	> 100	14.8	7.4	35.4			COc1cc2c3cc(C)c4c(c3n(Cc3cc(Cl)ccc3Cl)c2cc1OC)C=CC(C)(C)O4		
									N#CC(C#N)=NNc1cccc(Cl)c1 [CARBONYL CYANIDE M-CHLOROPHENYLHYDRAZONE]		12.75
41.8	33.4	65.6	> 100	29.1	20	56.1			COc1cccc(Cn2c3cc(OC)c(OC)cc3c3cc(C)c4c(c32)C=CC(C)(C)O4)c1		
38.8	9.7	> 100	> 100	51.5	76.1	> 100			C#CCn1c2cc(OC)c(OC)cc2c2cc(C)c3c(c21)C=CC(C)(C)O3	> 100	
> 100	> 100	72.4	> 100	> 100	70.5	> 100			COc1cc2c3cc(C=O)c4c(c3n(Cc3cccc(Cl)c3)c2cc1OC)C=CC(C)(C)O4		
35.5	8.3	> 100	70	33.6	27.3	> 100			COc1cc2[nH]c3c4c(c(C=O)cc3c2cc1OC)OC(C)(C)C=C4	> 100	
15.5	4.4	44.9	47.6	71.7	9.6	8.5			COc1cc2c3cc(C)c4c(c3n(C/C(I)=C\I)c2cc1OC)C=CC(C)(C)O4	> 100	
> 100	52.4	> 100	> 100	> 100	> 100	50.1			C#CCn1c2ccc(OC)cc2c2cc(C)c3c(c21)C=CC(C)(C)O3	> 100	
42.4	30.7	32.8	> 100	36.6	32.9	> 100			COc1ccc2c(c1)c1cc(C=O)c3c(c1n2Cc1ccccc1)C=CC(C)(C)O3		
9.6	28	64.9	> 100	96.6	14.1	73.4			COc1cc2c3cc(C)c4c(c3n(Cc3cccc(C)c3)c2cc1OC)C=CC(C)(C)O4	> 100	
41.8	46.5	> 100	> 100	64	74.9	52.8			COc1ccc2c(c1)c1cc(C)c3c(c1n2Cc1ccccc1)C=CC(C)(C)O3	> 100	
34.6	46.5	48.2	55.7	35.7	35.5	73.1			COc1ccc2c(c1)c1cc(C)c3c(c1n2Cc1cccc(C)c1)C=CC(C)(C)O3	> 100	
8.2	36.7	70.7	36.6	24.4	9.3	35.9			COc1cc2c3cc(C)c4c(c3n(Cc3ccccc3Br)c2cc1OC)C=CC(C)(C)O4	> 100	
> 100	> 100	> 100	> 100	> 100	77.2	> 100			COc1cccc(Cn2c3cc(OC)c(OC)cc3c3cc(C=O)c4c(c32)C=CC(C)(C)O4)c1		

Compound	IC50 [1] [µM]	IC50 [2] [µM]	IC50 [3] [µM]	IC50 [4] [µM]	IC50 [5] [µM]	IC50 [6] [µM]	IC50 [7] [µM]	Activity [9]	Activity [10]	IC50 [8] [µM]	Activity [11] [%]
CC/C(=C(\c1ccccc1)c1ccc(OCCN(C)C)cc1)c1ccccc1 [TAMOXIFEN CITRATE]		12.8	6.2	11.2		11.7				27.3	
